Where “and” joins values, the source holds several entries; their conditions need not be identical. Identical values can stand only once.
Tested on: MPNST multicellular tumor spheroids, viability % test/control
Test: Anticancer human tumor MPNST cell line growth inhibition;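 further: spheroids exposed to agents for seven days after three days of growth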;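 on viability, T/C: luminescence signal used as surrogate for viable cell amount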
Conditions: for viability, T/C: stronger effect = lower value
In short: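 Single agents and combinations were tested on spheroids built from tumor cells plus HUVEC and hMSC, at half-log dilutions starting at or near clinical Cmax, else 10 microM; final DMSO 0.25% (v/v).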

[1] = curve of first compound, second compound 0.003 µM
[2] = second compound 0.003 µM, first compound 0.00949 µM
[3] = second compound 0.003 µM, first compound 0.03 µM
[4] = second compound 0.003 µM, first compound 0.0949 µM
[5] = second compound 0.003 µM, first compound 0.3 µM
[6] = second compound 0.003 µM, first compound 0.949 µM
[7] = second compound 0.003 µM, first compound 3 µM
[8] = curve of first compound, second compound 1 µM
[9] = curve of first compound, second compound 3.16 µM
[10] = curve of first compound, second compound 10 µM
[11] = curve of first compound, second compound 31.6 µM
[12] = curve of first compound, second compound 100 µM
[13] = second compound 1 µM, first compound 0.0316 µM
[14] = second compound 1 µM, first compound 0.1 µM
[15] = second compound 1 µM, first compound 0.316 µM
[16] = second compound 1 µM, first compound 1 µM
[17] = second compound 1 µM, first compound 3.16 µM
[18] = second compound 1 µM, first compound 10 µM
[19] = second compound 3.16 µM, first compound 0.0316 µM
[20] = second compound 3.16 µM, first compound 0.1 µM
[21] = second compound 3.16 µM, first compound 0.316 µM
[22] = second compound 3.16 µM, first compound 1 µM
[23] = second compound 3.16 µM, first compound 3.16 µM
[24] = second compound 3.16 µM, first compound 10 µM
[25] = second compound 10 µM, first compound 0.0316 µM
[26] = second compound 10 µM, first compound 0.1 µM
[27] = second compound 10 µM, first compound 0.316 µM
[28] = second compound 10 µM, first compound 1 µM
[29] = second compound 10 µM, first compound 3.16 µM
[30] = second compound 10 µM, first compound 10 µM
[31] = second compound 31.6 µM, first compound 0.0316 µM
[32] = second compound 31.6 µM, first compound 0.1 µM
[33] = second compound 31.6 µM, first compound 0.316 µM
[34] = second compound 31.6 µM, first compound 1 µM
[35] = second compound 31.6 µM, first compound 3.16 µM
[36] = second compound 31.6 µM, first compound 10 µM
[37] = second compound 100 µM, first compound 0.0316 µM
[38] = second compound 100 µM, first compound 0.1 µM
[39] = second compound 100 µM, first compound 0.316 µM
[40] = second compound 100 µM, first compound 1 µM
[41] = second compound 100 µM, first compound 3.16 µM
[42] = second compound 100 µM, first compound 10 µM

Cn1ncnc1[C@H]1c2n[nH]c(=O)c3cc(F)cc(c23)N[C@@H]1c1ccc(F)cc1 + CC[C@@]1(O)C(=O)OCc2c1cc1n(c2=O)Cc2cc3c(CN(C)C)c(O)ccc3nc2-1
IC50 [1]: > 3 µM
IC50 (curve of first compound, second compound 0.00949 µM): > 3 µM
IC50 (curve of first compound, second compound 0.03 µM): > 3 µM
IC50 (curve of first compound, second compound 0.0949 µM): > 3 µM
IC50 (curve of first compound, second compound 0.3 µM): < 0.00949 µM
viability, T/C [2]: 90.6%
viability, T/C [3]: 77.2%
viability, T/C [4]: 72.3%
viability, T/C [5]: 68.7%
viability, T/C [6]: 62.2%
viability, T/C [7]: 60.1%
viability, T/C (second compound 0.00949 µM, first compound 0.00949 µM): 65%
viability, T/C (second compound 0.00949 µM, first compound 0.03 µM): 65.6%
viability, T/C (second compound 0.00949 µM, first compound 0.0949 µM): 60.5%
viability, T/C (second compound 0.00949 µM, first compound 0.3 µM): 63.9%
viability, T/C (second compound 0.00949 µM, first compound 0.949 µM): 59.4%
viability, T/C (second compound 0.00949 µM, first compound 3 µM): 59.9%
viability, T/C (second compound 0.03 µM, first compound 0.00949 µM): 56.7%
viability, T/C (second compound 0.03 µM, first compound 0.03 µM): 59%
viability, T/C (second compound 0.03 µM, first compound 0.0949 µM): 61.1%
viability, T/C (second compound 0.03 µM, first compound 0.3 µM): 59.7%
viability, T/C (second compound 0.03 µM, first compound 0.949 µM): 64%
viability, T/C (second compound 0.03 µM, first compound 3 µM): 61.1%
viability, T/C (second compound 0.0949 µM, first compound 0.00949 µM): 59.7%
viability, T/C (second compound 0.0949 µM, first compound 0.03 µM): 55.8%
viability, T/C (second compound 0.0949 µM, first compound 0.0949 µM): 58.8%
viability, T/C (second compound 0.0949 µM, first compound 0.3 µM): 61.6%
viability, T/C (second compound 0.0949 µM, first compound 0.949 µM): 59.1%
viability, T/C (second compound 0.0949 µM, first compound 3 µM): 55.6%
viability, T/C (second compound 0.3 µM, first compound 0.00949 µM): 49.5%
viability, T/C (second compound 0.3 µM, first compound 0.03 µM): 48.5%
viability, T/C (second compound 0.3 µM, first compound 0.0949 µM): 49.2%
viability, T/C (second compound 0.3 µM, first compound 0.3 µM): 52.7%
viability, T/C (second compound 0.3 µM, first compound 0.949 µM): 53%
viability, T/C (second compound 0.3 µM, first compound 3 µM): 46.3%

Cn1nnc2c(C(N)=O)ncn2c1=O
IC50 (compound alone, run of 11/07/2019): > 100 µM and 30.7 µM

[2H]c1nc(C)nc([2H])c1-c1cc(NC[C@@H](C)c2cccc3c(C(=O)NC)ccnc23)ncn1
viability, T/C (compound 0.0316 µM): 96.1% and 83.1% and 86.7%
viability, T/C (compound 0.1 µM): 77.8% and 109% and 75.6%
viability, T/C (compound 0.316 µM): 82.6% and 102% and 90.4%
viability, T/C (compound 1 µM): 101% and 103% and 119%
viability, T/C (compound 3.16 µM): 110% and 104% and 71.3%
viability, T/C (compound 10 µM): 101% and 100% and 67.4%
IC50 (curve of compound): > 10 µM

[2H]c1nc(C)nc([2H])c1-c1cc(NC[C@@H](C)c2cccc3c(C(=O)NC)ccnc23)ncn1 + Cn1nnc2c(C(N)=O)ncn2c1=O
IC50 [8]: > 10 µM
IC50 [9]: > 10 µM
IC50 [10]: > 10 µM
IC50 [11]: > 10 µM
IC50 [12]: > 10 µM
viability, T/C [13]: 86.5%
viability, T/C [14]: 86.8%
viability, T/C [15]: 93.2%
viability, T/C [16]: 101%
viability, T/C [17]: 97.3%
viability, T/C [18]: 104%
viability, T/C [19]: 114%
viability, T/C [20]: 100%
viability, T/C [21]: 76.3%
viability, T/C [22]: 91%
viability, T/C [23]: 89.8%
viability, T/C [24]: 104%
viability, T/C [25]: 81.1%
viability, T/C [26]: 94.9%
viability, T/C [27]: 108%
viability, T/C [28]: 116%
viability, T/C [29]: 94.1%
viability, T/C [30]: 108%
viability, T/C [31]: 85%
viability, T/C [32]: 85.9%
viability, T/C [33]: 79.5%
viability, T/C [34]: 96.8%
viability, T/C [35]: 78.7%
viability, T/C [36]: 101%
viability, T/C [37]: 89.5%
viability, T/C [38]: 111%
viability, T/C [39]: 113%
viability, T/C [40]: 81.1%
viability, T/C [41]: 107%
viability, T/C [42]: 89.9%

Cn1ncnc1[C@H]1c2n[nH]c(=O)c3cc(F)cc(c23)N[C@@H]1c1ccc(F)cc1 + COc1cc2c(cc1O)CCNC21CSC2c3c(OC(C)=O)c(C)c4c(c3C(COC1=O)N1C(O)C3Cc5cc(C)c(OC)c(O)c5C(C21)N3C)OCO4
IC50 (curve of first compound, second compound 30 pM): 1.52 µM
IC50 (curve of first compound, second compound 94.9 pM): 0.259 µM
IC50 (curve of first compound, second compound 0.0003 µM): 0.0689 µM
IC50 (curve of first compound, second compound 0.000949 µM): < 0.00949 µM
IC50 [1]: < 0.00949 µM
viability, T/C (second compound 30 pM, first compound 0.00949 µM): 64.4%
viability, T/C (second compound 30 pM, first compound 0.03 µM): 75.2%
viability, T/C (second compound 30 pM, first compound 0.0949 µM): 58.3%
viability, T/C (second compound 30 pM, first compound 0.3 µM): 59.1%
viability, T/C (second compound 30 pM, first compound 0.949 µM): 52.7%
viability, T/C (second compound 30 pM, first compound 3 µM): 46%
viability, T/C (second compound 94.9 pM, first compound 0.00949 µM): 68.9%
viability, T/C (second compound 94.9 pM, first compound 0.03 µM): 86.8%
viability, T/C (second compound 94.9 pM, first compound 0.0949 µM): 67%
viability, T/C (second compound 94.9 pM, first compound 0.3 µM): 49.9%
viability, T/C (second compound 94.9 pM, first compound 0.949 µM): 45.3%
viability, T/C (second compound 94.9 pM, first compound 3 µM): 46%
viability, T/C (second compound 0.0003 µM, first compound 0.00949 µM): 53.1%
viability, T/C (second compound 0.0003 µM, first compound 0.03 µM): 53.6%
viability, T/C (second compound 0.0003 µM, first compound 0.0949 µM): 47%
viability, T/C (second compound 0.0003 µM, first compound 0.3 µM): 49%
viability, T/C (second compound 0.0003 µM, first compound 0.949 µM): 43%
viability, T/C (second compound 0.0003 µM, first compound 3 µM): 41.9%
viability, T/C (second compound 0.000949 µM, first compound 0.00949 µM): 51.6%
viability, T/C (second compound 0.000949 µM, first compound 0.03 µM): 41.6%
viability, T/C (second compound 0.000949 µM, first compound 0.0949 µM): 40.9%
viability, T/C (second compound 0.000949 µM, first compound 0.3 µM): 44.4%
viability, T/C (second compound 0.000949 µM, first compound 0.949 µM): 38%
viability, T/C (second compound 0.000949 µM, first compound 3 µM): 29.9%
viability, T/C [2]: 13.7%
viability, T/C [3]: 15.3%
viability, T/C [4]: 9.43%
viability, T/C [5]: 9.63%
viability, T/C [6]: 6.89%
viability, T/C [7]: 2.68%

COc1cc(C)[nH]c(=O)c1CN1CCc2c(Cl)cc(C(OC)C3COC3)c(Cl)c2C1=O (stereo not given) + Cn1nnc2c(C(N)=O)ncn2c1=O
IC50 [8]: > 10 µM
IC50 [9]: > 10 µM
IC50 [10]: > 10 µM
IC50 [11]: > 10 µM
IC50 [12]: > 10 µM
viability, T/C [13]: 89.9%
viability, T/C [14]: 80.4%
viability, T/C [15]: 78.7%
viability, T/C [16]: 88.5%
viability, T/C [17]: 94.2%
viability, T/C [18]: 107%
viability, T/C [19]: 87.7%
viability, T/C [20]: 84.4%
viability, T/C [21]: 122%
viability, T/C [22]: 97.4%
viability, T/C [23]: 150%
viability, T/C [24]: 95.9%
viability, T/C [25]: 81.5%
viability, T/C [26]: 106%
viability, T/C [27]: 101%
viability, T/C [28]: 97.8%
viability, T/C [29]: 99.9%
viability, T/C [30]: 92.8%
viability, T/C [31]: 79.1%
viability, T/C [32]: 74%
viability, T/C [33]: 92.5%
viability, T/C [34]: 81.7%
viability, T/C [35]: 103%
viability, T/C [36]: 82.7%
viability, T/C [37]: 84%
viability, T/C [38]: 82.7%
viability, T/C [39]: 70.7%
viability, T/C [40]: 80.6%
viability, T/C [41]: 80.7%
viability, T/C [42]: 86.5%

CC(C)n1c(=O)n(C)c2cnc3cc(F)c(-c4ccc(OCCCN5CCCCC5)nc4)cc3c21
viability, T/C (compound 0.0316 µM): 116% and 75.2% and 95.3%
viability, T/C (compound 0.1 µM): 92% and 92.2% and 75.8%
viability, T/C (compound 0.316 µM): 105% and 84.5% and 144%
viability, T/C (compound 1 µM): 93.2% and 88.2% and 84.2%
viability, T/C (compound 3.16 µM): 92.5% and 85.4% and 72.3%
viability, T/C (compound 10 µM): 63.2% and 56.1% and 54.5%
IC50 (curve of compound): > 10 µM
